According to paper PMC12441843 (ACS pharmacology & translational science, 2025):
Where “and” joins values, the source holds several entries; their conditions need not be identical. Equal values may be shown once. Read-outs that look alike come from different tables or passages of the source.

Columns and labels:
[1] = test system: senescent lung fibroblasts; experiment: Cleaved caspase-3 (CCasp3) immunocytochemistry in senescent lung fibroblasts; format: cell-based, human; conditions: for concentration above which senolytic effects were displayed: CCasp3 dose-response; for Senolytic window (EC50pro/EC50sen): ratio of proliferating to senescent fibroblast EC50
[2] = test system: proliferating lung fibroblasts; experiment: Cleaved caspase-3 (CCasp3) immunocytochemistry in proliferating lung fibroblasts; format: cell-based, human
[3] = Plasma stability assay, human plasma; format: in vitro ADME
[4] = Plasma stability assay, mouse plasma; format: in vitro ADME
[5] = test system: precision-cut lung slices from bleomycin-injured aged mouse lungs; experiment: Precision-cut lung slices (PCLS) from aged mice +/- bleomycin, qPCR; conditions: 72 hours ex vivo; for Col1a1 expression in PCLS: Nintedanib 1.0μM, vs. vehicle
[6] = test system: proliferating lung fibroblasts; experiment: Annexin V / Propidium Iodide flow cytometry, proliferating fibroblasts; format: cell-based, human; conditions: 72 hours, F-4N 3.0 μM
[7] = test system: senescent lung fibroblasts; experiment: Annexin V / Propidium Iodide flow cytometry, senescent fibroblasts; format: cell-based, human; conditions: 72 hours, F-4N 3.0 μM
[8] = Plasma levels following oral delivery of F-4N; format: in vivo; conditions: both sexes, mouse, 30 mg/kg
[9] = Mouse liver microsomal stability; format: in vitro ADME; conditions: mouse liver microsomes, 1 μM
[10] = test system: mice with bleomycin induced lung fibrosis; experiment: Oral dose-finding study with F-4N in bleomycin mice (body mass, lung cytokine transcripts); format: in vivo, mouse
[11] = test system: bleomycin-induced lung fibrosis in aged mice; experiment: Bleomycin-induced model of lung fibrosis in aged mice; format: in vivo, mouse
[12] = test system: repeated bleomycin-induced lung fibrosis; experiment: Repeated bleomycin-induced model of lung fibrosis; format: in vivo, mouse; conditions: 10mg/kg daily i.p. for two weeks
[13] = test system: bleomycin-induced lung fibrosis; experiment: Bleomycin model in young Col1a2-mTmG mice, FACS-sorted fibroblasts and epithelial cells, qPCR; format: in vivo, mouse
[14] = senescent vs. proliferating fibroblasts, 72 hours
[15] = Homo sapiens, Fibroblast, 72 h, read-out: Proliferating fibroblast apoptosis EC50, cleaved caspase-3 staining, 72 hours, low passage human lung fibroblasts
[16] = Homo sapiens, Fibroblast, 72 h, read-out: Senescent fibroblast apoptosis EC50
[17] = F-4N 3µM, ABT-263 5.0µM, ABT-199 3µM
[18] = 10 mg/kg i.p. daily days 14-28, vs. vehicle
[19] = read-out: Proliferating fibroblast apoptosis EC50, cleaved caspase-3 staining, 72 hours, low passage human lung fibroblasts

SMILES: O=c1c(O)c(-c2ccc(O)c(O)c2)oc2cc(O)ccc12 [fisetin, reference compound]
- concentration above which senolytic effects were displayed [1, 14]: above 30 μM

SMILES: O=c1c(O)c(-c2ccc(OCc3ccccn3)cc2)oc2ccccc12 [Compound F-2N]
- EC50 [2, 15]: 29.8 µM
- EC50 [1, 16]: 21.8 µM
- Senolytic window (EC50pro/EC50sen) [1]: 1.4

SMILES: O=c1c(O)c(-c2ccc(OCc3cccnc3)cc2)oc2ccccc12 [Compound F-3N]
- EC50 [2, 15]: 14.9 µM
- EC50 [1, 16]: 11.2 µM
- Senolytic window (EC50pro/EC50sen) [1]: 1.3

SMILES: CC1(C)CCC(CN2CCN(c3ccc(C(=O)NS(=O)(=O)c4ccc(NCC5CCOCC5)c([N+](=O)[O-])c4)c(Oc4cnc5[nH]ccc5c4)c3)CC2)=C(c2ccc(Cl)cc2)C1 [ABT-199, venetoclax, reference compound]
- EC50 [2, 15]: 76.5 µM
- EC50 [1, 16]: 3.2 µM
- Senolytic window (EC50pro/EC50sen) [1]: 23.9

SMILES: O=c1c(O)c(-c2ccc(OCc3ccccc3)cc2)oc2ccccc12 [Compound F-20]
- EC50 [2, 15]: 27.6 µM
- EC50 [1, 16]: 1.5 µM
- Senolytic window (EC50pro/EC50sen) [1]: 18.4

SMILES: O=c1c(O)c(-c2ccc(O)c(O)c2)oc2cc(O)cc(O)c12 [quercetin, reference compound]
- half-life at 1 μM [3]: ~30 min
- half-life at 1 μM [4]: ~30 min
- concentration above which senolytic effects were displayed [1, 14]: above 30 μM
- EC50 [1, 16]: > 30 µM

SMILES: CN(C)CC[C@H](CSc1ccccc1)Nc1ccc(S(=O)(=O)NC(=O)c2ccc(N3CCN(Cc4ccccc4-c4ccc(Cl)cc4)CC3)cc2)cc1[N+](=O)[O-] [ABT-737, reference compound]
- EC50 [2, 15]: 9.7 µM
- EC50 [1, 16]: 0.7 µM

SMILES: COC(=O)c1ccc2c(c1)NC(=O)/C2=C(\Nc1ccc(N(C)C(=O)CN2CCN(C)CC2)cc1)c1ccccc1 [nintedanib, reference compound]
- Col1a1 expression in PCLS ([5]; F-19 10μM): reduced expression of Col1a1

SMILES: O=c1c(O)c(-c2ccc(OCc3ccncc3)cc2)oc2ccccc12 [Compound F-4N]
- apoptosis (Annexin V / Propidium Iodide) [6]: without an observable impact
- apoptosis (Annexin V / Propidium Iodide) [7]: selective apoptosis in senescent lung fibroblasts
- markers indicative of alveolar regeneration in PCLS [5, 17]: stimulated expression of markers indicative of alveolar regeneration
- senescence associated markers in PCLS [5, 17]: supported reductions in senescence associated markers
- half-life at 1 μM [3]: > 120 min
- half-life at 1 μM [4]: > 120 min
- concentration at 2 h [8]: 561 ng/mL and 1.62 µM
- microsomal half-life relative to quercetin [9]: > 3 fold
- EC50 [2, 15]: 48.9 µM
- greater senolytic potency in vitro compared to fisetin or quercetin [1]: ~ 50 X
- EC50 [1, 16]: 0.8 µM
- EC50 ([1]; Homo sapiens, Fibroblast, read-out: EC50 (senolytic potency, CCasp3 assay)): 0.9 µM
- IC50 ([1]; Homo sapiens, Fibroblast, read-out: defined in vitro IC50): 0.9 µM
- Senolytic window (EC50pro/EC50sen) [1]: 61.1
- cleaved caspase-3 expression in senescent fibroblasts derived from multiple stimuli ([1]; senescence by replication, radiation, etoposide or bleomycin, 72 hours, F-4N 3µM): induces cleaved caspase-3 expression
- senolytic window (selective) ([1]; senescent vs. proliferating fibroblasts): 61.1 fold
- bodyweight ([10]; 30mg/kg daily p.o. for one week): improvement in bodyweight
- minimum effective oral dose to impact expression of Infa2, Il6, Ccl19, Cxcl13, Tgfb2, Ltb ([10]; daily p.o. 7 days, whole lung qPCR): 30 mg/kg
- plasma levels of IL-6 ([11]; 10 mg/kg i.p. daily days 14-28): nearly complete normalization
- lung collagen content (hydroxyproline) [11, 18]: nearly complete resolution of lung collagen content
- mouse survival [11, 18]: improvement in mouse survival
- whole lung expression of ECM and senescence-associated transcripts [11, 18]: significantly lower expression
- whole lung markers associated with alveolar regeneration and repair [11, 18]: significantly elevated
- expression of aberrant basaloid/intermediate epithelial markers Snf, Cldn4, Krt19, Mmp7 [12]: repressing expression
- expression of mature alveolar epithelial markers Hopx, Ager, Sftpa1, Sftpc [12]: enhanced expression
- body mass, lung architecture, collagen content, whole lung gene expression ([12]; vs. vehicle): features consistent with resolution

SMILES: CC1(C)CCC(c2ccc(Cl)cc2)=C(CN2CCN(c3ccc(C(=O)NS(=O)(=O)c4ccc(N[C@H](CCN5CCOCC5)CSc5ccccc5)c(S(=O)(=O)C(F)(F)F)c4)cc3)CC2)C1 [ABT-263, navitoclax, reference compound]
- EC50 [2, 15]: 14.9 µM
- EC50 [1, 16]: 1.9 µM
- Senolytic window (EC50pro/EC50sen) [1]: 7.8

SMILES: CCOc1ccc(-c2oc3ccccc3c(=O)c2O)cc1 [Compound F-19]
- expression of Sftpc and Hopx (mature alveolar epithelium) in PCLS ([5]; F-19 10μM): increased expression
- Col1a1 expression in PCLS ([5]; F-19 10μM): reduced expression of Col1a1
- expression of senescence-associated markers Cdkn2a, Cdkn1a, Il6 in PCLS ([5]; F-19 10μM, vs. vehicle- and nintedanib-treated): significantly reduced expression
- expression of TNF-α in fibroblasts and epithelial cells ([13]; 10 mg/kg i.p. daily for 4 days): did not alter expression
- expression of pathological markers of lung fibrosis (ECM genes, senescence-associated soluble factors, aberrant basaloid markers) ([13]; 10 mg/kg i.p. daily for 4 days): normalized expression
- expression of Cdkn2a (p16) and Cdkn1a (p21) in fibroblasts and epithelial cells ([13]; 10 mg/kg i.p. daily for 4 days from day 10 after bleomycin, vs. vehicle): significantly reduced expression
- expression of alveolar epithelial ATII, ATII/ATI and ATI markers ([13]; 10 mg/kg i.p. daily for 4 days, vs. vehicle): elevated expression
- EC50 [2, 15]: 25 µM
- EC50 [2, 19]: 24.5 µM
- more potent than the natural products Q or F [1]: 10 fold
- ranking in follow-up dose-response of the commercial flavonol library ([1]; CCasp3, senescent and proliferating lung fibroblasts): most potent and selective senolytics
- EC50 [1, 16]: 2.4 µM
- Senolytic window (EC50pro/EC50sen) [1]: 10.2

SMILES: CCCOc1ccc(-c2oc3ccccc3c(=O)c2O)cc1 [F-19(Me)]
- EC50 [2, 19]: 19.5 µM
- Senolytic window (EC50pro/EC50sen) [1]: 5.7
- EC50 ([1]; read-out: Senescent fibroblast apoptosis EC50, cleaved caspase-3 staining, 72 hours, replicative senescent human lung fibroblasts): 3.4 µM
